Patent publication US9309263B2, “Fused multi-cyclic sulfone compounds as inhibitors of beta-secretase and methods of use thereof” (AMGEN INC., priority 2013, dated 2016)
Where two headings read alike, the source gives them in different places. One block for each compound: values may come before it.

Tests used:
[1] = target: Beta Secretase enzyme (BACE) (Homo sapiens, UniProt P56817); assay: In vitro enzymatic BACE FRET assay; format: biochemical; conditions: read-out: BACE1 FRET assay IC50
Procedure: In Vitro Enzymatic BACE FRET (Fluorescence Resonance Energy Transfer) Assay (Enzyme Assay Data in the Example Table I)
The assay buffer used in this screen is 0.05 M acetate, pH 4.2, 10% DMSO final, 100 uM genapol (which is a nonionic detergent, below its Critical Micelle Concentration). The Beta Secretase enzyme (0.2 nM) is pre-incubated for one hour with inhibitors, typically in about 1 uL of DMSO according to a serial dilution, are added thereto. This assay is effectively started by the addition of FRET substrate (50 nM) and the combination is incubated for one hour. The FRET assay is terminated with by addition of Tris buffer, which raises the pH to neutrality, and the fluorescence is determined. The FRET substrate is a peptide with commercially available fluorophore and quencher, on opposite sides of the BACE cleavage site. Proteolytic cleavage of the FRET substrate releases quenching of fluorescence (excitation 488 nm and […]).

[2] = target: Cathepsin D (Cat D) (Homo sapiens, UniProt P07339); assay: In vitro enzymatic Cathepsin D (Cat D) FRET assay; format: biochemical
Sequence of Cathepsin D (Cat D) (P07339 65-412, species assumed): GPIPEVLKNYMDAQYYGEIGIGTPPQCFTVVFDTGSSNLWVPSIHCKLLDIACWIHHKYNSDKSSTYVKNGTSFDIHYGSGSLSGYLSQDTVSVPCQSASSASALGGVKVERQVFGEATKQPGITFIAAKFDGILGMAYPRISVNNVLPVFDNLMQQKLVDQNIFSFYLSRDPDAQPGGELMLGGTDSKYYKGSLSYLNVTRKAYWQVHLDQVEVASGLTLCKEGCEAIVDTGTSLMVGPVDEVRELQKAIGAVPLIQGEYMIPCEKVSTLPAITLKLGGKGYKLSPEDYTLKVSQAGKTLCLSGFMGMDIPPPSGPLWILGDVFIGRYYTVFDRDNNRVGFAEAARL
Procedure: In Vitro Enzymatic Cathepsin D (Cat D) FRET (Fluorescence Resonance Energy Transfer) Assay
Recombinant Cat D was expressed in CHO cells. The assay buffer for CathepsinD is 0.05 M citrate pH 3.5, 10% DMSO final, 5 mM CHAPS. The Cat D enzyme (9 nM) is pre-incubated for one hour with inhibitors, typically in about 1 uL of DMSO according to a serial dilution, is added thereto. The assays are effectively started by the addition of different FRET substrates (20 nM for Cat D) and the combination is incubated for one hour. The FRET assay is terminated with by addition of Tris buffer, which raises the pH to neutrality, and the fluorescence is determined. The FRET substrate is a peptide with commercially available fluorophore and quencher, on opposite sides of the BACE cleavage site. The Cat D substrate peptide sequence is based on sequence #1 of Table 1 from Gulnik et al. FEBS Letters v413 p 379-384 1997. Proteolytic cleavage of the FRET substrate releases quenching of fluorescence (Cat D excitation 500 nm and emission 580 nm). […]
See, for instance, examples 8, 12, 15, 16, 18, 21-23, 24, 25, 26, 29, 30, 32, 41-42, 45, 53, 54, 57, 63, 67-69, 72-74, 76, 79-81, 83 & 84 (to point to just a few; referring to data in Table 2). […] See, for instance, examples 8, 12, 15, 18, 21-23, 25, 29, 30, 32, 41-42, 45, 54, 57, 67-68, 72-73, 76, 80-81, 84, 86, 91-92 & 100 (to point out those from compound examples 1-100; and with reference to data in Table 2).

[3] = system: Aβ 40 in conditioned medium of cells stably expressing Amyloid Precursor Protein (APP); assay: In vitro BACE cell-based assay (Aβ 40 sandwich ELISA); conditions: Homo sapiens, HEK293
Procedure: In Vitro BACE Cell-Based Assay
The cell-based assay measures inhibition or reduction of […] in conditioned medium of test compound treated cells expressing amyloid precursor protein.
Cells stably expressing Amyloid Precursor Protein (APP) were plated at a density of 40K cells/well in 96 well plates (Costar). The cells were cultivated for 24 hours at 37° C. and 5% CO2 in DMEM supplemented with 10% FBS. The test compounds were then added to cells in 10-point dose response concentrations with the starting concentration being either 100 μM or 10 μM. The compounds were diluted from stock solutions in DMSO and the final DMSO concentration of the test compounds on cells was 0.1%. After 24 h of incubation with the test compounds the supernatant conditioned media was collected and the Aβ 40 levels were determined using a sandwich ELISA. The IC50 of the compound was calculated from the percent of control or percent inhibition of Aβ 40 as a function of the concentration of the test compound.
The sandwich ELISA to detect Aβ 40 was performed in 96 well microtiter plates, which were pre-treated with goat anti-rabbit IgG (Pierce). The capture and detecting antibody pair that were used to detect Aβ 40 from cell supernatants were affinity purified pAb40 (Biosource) and biotinylated 6E10 (Signet Labs Inc.), respectively. The optimal concentration for the pAb40 antibody was 3 μg/ml in Superblock/TBS (Pierce) that was supplemented with 0.05% Tween 20 (Sigma). Optimal concentration for the detection antibody 6E10-biotinylated was 0.5 μg/ml in Superblock/TBS (Pierce) that had been supplemented with 2% normal goat serum and 2% normal mouse serum.
Cellular supernatants were incubated with the capture antibody for 3 h at 4° C., followed by 3 wash steps in TBS-tween (0.05%). The detecting antibody incubation was for 2 h at 4° C., again followed by the wash steps as described previously. The final readout of the ELISA is Time-Resolved Fluorescence (counts per minute) using Delfia reagents Streptavidin-Europium and Enhancement solutions (Perkin Elmer) and the Victor 2 multilabel counter (Perkin Elmer).

[4] = average IC50, in vitro enzymatic BACE FRET assay
[5] = Cathepsin D FRET assay, read-out: CatD IC50
[6] = average IC50, HEK cell assay, Aβ 40 readout

Sequence of Beta Secretase enzyme (BACE) (P56817 46-501): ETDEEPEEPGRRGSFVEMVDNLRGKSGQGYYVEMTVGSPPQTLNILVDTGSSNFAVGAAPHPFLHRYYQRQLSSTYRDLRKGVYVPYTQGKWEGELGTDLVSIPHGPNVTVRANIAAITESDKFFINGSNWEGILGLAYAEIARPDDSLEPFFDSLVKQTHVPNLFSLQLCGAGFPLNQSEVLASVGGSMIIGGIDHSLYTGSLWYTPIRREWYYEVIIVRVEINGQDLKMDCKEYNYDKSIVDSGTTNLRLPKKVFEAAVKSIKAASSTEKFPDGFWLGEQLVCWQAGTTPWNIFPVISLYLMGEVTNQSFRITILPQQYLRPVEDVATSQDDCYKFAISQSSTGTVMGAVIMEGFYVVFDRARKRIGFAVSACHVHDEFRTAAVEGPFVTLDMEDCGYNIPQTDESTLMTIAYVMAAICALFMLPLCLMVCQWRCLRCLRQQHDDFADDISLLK

Structure (SMILES): COc1ccc(C(=O)Nc2ccc3c(c2)[C@@]2(C)N=C(N)C(C)(C)S(=O)(=O)[C@@H]2C[C@H](C)O3)nc1 [Example 72, N-((4aR,6S,11bR)-2-amino-3,3,6,11b-tetramethyl-4,4-dioxido-4a,5,6,11b-tetrahydro-3H-[1]benzoxepino[4,5-b][1,4]thiazin-10-yl)-5-methoxy-2-pyridinecarboxamide]
IC50 ([1]; average IC50): 11 nM
IC50 ([2]; read-out: CatD IC50): 1390 µM
IC50 ([2]; text summary referring to data in Table 2): > 1200 µM
IC50 ([3]; HEK cell, average IC50): 5 nM

Structure (SMILES): CC1(C)C(N)=N[C@]2(C)c3cc(Nc4nccc5cc(Cl)cnc45)cnc3OCC[C@H]2S1(=O)=O [Example 19, (4aR,11bR)-N^~10^~-(3-chloro-1,7-naphthyridin-8-yl)-3,3,11b-trimethyl-4a,5,6,11b-tetrahydro-3H-pyrido[3′,2′:6,7]oxepino[4,5-b][1,4]thiazine-2,10-diamine4,4-dioxide]
IC50 ([1]; average IC50): 3 nM
IC50 ([2]; read-out: CatD IC50): 263 µM
IC50 ([3]; HEK cell, average IC50): 19 nM

Structure (SMILES): CC(C#N)Oc1ccc(C(=O)Nc2ccc3c(c2)[C@@]2(C)N=C(N)C(C)(C)S(=O)(=O)[C@@H]2CCO3)nc1 (mixture of isomers) [Example 125, N-((4aR,11bR)-2-amino-3,3,11b-trimethyl-4,4-dioxido-4a,5,6,11b-tetrahydro-3H-[1]benzoxepino[4,5-b][1,4]thiazin-10-yl)-5-((1R)-1-cyanoethoxy)-2-pyridinecarboxamide, N-((4aR,11bR)-2-amino-3,3,11b-trimethyl-4,4-dioxido-4a,5,6,11b-tetrahydro-3H-[1]benzoxepino[4,5-b][1,4]thiazin-10-yl)-5-((15)-1-cyanoethoxy)-2-pyridinecarboxamide]
IC50 [1, 4]: 56 nM
IC50 [2, 5]: 1060 µM
IC50 [3, 6]: 67 nM

Structure (SMILES): Cc1cc(C#N)cnc1C(=O)Nc1cnc2c(c1)[C@@]1(C)N=C(N)C3(CCC3)S(=O)(=O)[C@@H]1CCO2 [Example 62, N-((4a′R,11b′R)-2′-amino-11b′-methyl-4′,4′-dioxido-4a′,5′,6′,11b′-tetrahydrospiro[cyclobutane-1,3′-pyrido[3′,2′:6,7]oxepino[4,5-b][1,4]thiazin]-10′-yl)-5-cyano-3-methyl-2-pyridinecarboxamide]
IC50 ([1]; average IC50): 15 nM
IC50 ([2]; read-out: CatD IC50): > 400 µM
IC50 ([3]; HEK cell, average IC50): 60 nM

Structure (SMILES): COc1cnc2c(Nc3ccc4c(c3)[C@@]3(C)N=C(N)C(C)(C)S(=O)(=O)[C@@H]3CCO4)ncc(F)c2c1 [Example 177, (4aR,11bR)-N^~10^~-(5-fluoro-3-methoxy-1,7-naphthyridin-8-yl)-3,3,11b-trimethyl-4a,5,6,11b-tetrahydro-3H-[1]benzoxepino[4,5-b][1,4]thiazine-2,10-diamine 4,4-dioxide]
IC50 ([1]; average IC50): 18 nM
IC50 ([2]; read-out: CatD IC50): 314 µM
IC50 ([3]; HEK cells, average IC50): 111 nM

Structure (SMILES): CCCOc1cnc2c(Nc3ccc4c(c3)[C@@]3(C)N=C(N)C(C)(C)S(=O)(=O)[C@@H]3C[C@H](C)O4)nccc2n1 [Example 135, (4aR,6S,11bR)-3,3,6,11b-tetramethyl-N^~10^~-(2-propoxypyrido[3,4-b]pyrazin-5-yl)-4a,5,6,11b-tetrahydro-3H-[1]benzoxepino[4,5-b][1,4]thiazine-2,10-diamine 4,4-dioxide]
IC50 [1, 4]: 26 nM
IC50 [2, 5]: 104 µM
IC50 [3, 6]: 139 nM

Structure (SMILES): CC#CCOc1cnc2c(Nc3ccc4c(c3)C3(C)N=C(N)C(C)(C)S(=O)(=O)C3CCO4)nccc2c1 [Example 182, (4aR,11bR)-N^~10^~-(3-(2-butyn-1-yloxy)-1,7-naphthyridin-8-yl)-3,3,11b-trimethyl-4a,5,6,11b-tetrahydro-3H-[1]benzoxepino[4,5-b][1,4]thiazine-2,10-diamine 4,4-dioxide]
IC50 ([1]; average IC50): 3 nM
IC50 ([2]; read-out: CatD IC50): > 400 µM
IC50 ([3]; HEK cells, average IC50): 14 nM

More lines, now with the values ahead:

IC50 [1, 4]: 12 nM
IC50 [2, 5]: 710 µM
IC50 [3, 6]: 93 nM
Structure (SMILES): CC1(C)C(N)=N[C@]2(CF)c3cc(Nc4nccc5cc(Cl)cnc45)ccc3OCC[C@H]2S1(=O)=O [Example 148, (4aR,11bS)-N^~10^~-(3-chloro-1,7-naphthyridin-8-yl)-11b-(fluoromethyl)-3,3-dimethyl-4a,5,6,11b-tetrahydro-3H-[1]benzoxepino[4,5-b][1,4]thiazine-2,10-diamine 4,4-dioxide]

IC50 ([1]; average IC50): 10 nM
IC50 ([2]; read-out: CatD IC50): 586 µM
IC50 ([3]; HEK cells, average IC50): 28 nM
Structure (SMILES): Cc1nc(OCC2CC2)cnc1C(=O)Nc1ccc2c(c1)[C@@]1(C)N=C(N)C(C)(C)S(=O)(=O)[C@@H]1CCO2 [Example 178, N-((4aR,11bR)-2-amino-3,3,11b-trimethyl-4,4-dioxido-4a,5,6,11b-tetrahydro-3H-benzo[6,7]oxepino[4,5-b][1,4]thiazin-10-yl)-5-(cyclopropylmethoxy)-3-methylpyrazine-2-carboxamide]

IC50 ([1]; average IC50): 8 nM
IC50 ([2]; read-out: CatD IC50): 652 µM
IC50 ([3]; HEK cells, average IC50): 3 nM
Structure (SMILES): CC1(C)C(N)=N[C@]2(C)c3cc(NC(=O)c4ccc(OC(F)F)cn4)ccc3OCC[C@H]2S1(=O)=O [Example 194, N-((4aR,11bR)-2-amino-3,3,11b-trimethyl-4,4-dioxido-4a,5,6,11b-tetrahydro-3H-[1]benzoxepino[4,5-b][1,4]thiazin-10-yl)-5-(difluoromethoxy)-2-pyridinecarboxamide]

IC50 ([1]; average IC50): 0.7 nM
IC50 ([2]; read-out: CatD IC50): 120 µM
IC50 ([3]; HEK cell, average IC50): 0.2 nM
Structure (SMILES): CC#CCOc1cnc(C(=O)Nc2ccc3c(c2)[C@@]2(C)N=C(N)C(C)(C)S(=O)(=O)[C@@H]2CCC3)cn1 [Example 50, N-((4aR,11bR)-2-amino-3,3,11b-trimethyl-4,4-dioxido-3,4a,5,6,7,11b-hexahydrobenzo[3,4]cyclohepta[1,2-b][1,4]thiazin-10-yl)-5-(2-butyn-1-yloxy)-2-pyrazinecarboxamide]

IC50 ([1]; average IC50): 1 nM
IC50 ([2]; read-out: CatD IC50): 461 µM
IC50 ([3]; HEK cell, average IC50): 0.4 nM
Structure (SMILES): CC#CCOc1cnc(C(=O)Nc2ccc3c(c2)[C@@]2(C)N=C(N)C(C)(C)S(=O)(=O)[C@@H]2C[C@H](C)O3)cn1 [Example 51, N-((4aR,6S,11bR)-2-amino-3,3,6,11b-tetramethyl-4,4-dioxido-4a,5,6,11b-tetrahydro-3H-[1]benzoxepino[4,5-b][1,4]thiazin-10-yl)-5-(2-butyn-1-yloxy)-2-pyrazinecarboxamide]

IC50 [1, 4]: 13 nM
IC50 [2, 5]: > 400 µM
IC50 [3, 6]: 21 nM
Structure (SMILES): C[C@H]1C[C@@H]2[C@](CF)(N=C(N)C(C)(C)S2(=O)=O)c2cc(Nc3nccc4cc(C#N)cnc34)ccc2O1 [Example 110, 8-(((4aR,6S,11bS)-2-amino-11b-(fluoromethyl)-3,3,6-trimethyl-4,4-dioxido-4a,5,6,11b-tetrahydro-3H-[1]benzoxepino[4,5-b][1,4]thiazin-10-yl)amino)-1,7-naphthyridine-3-carbonitrile]
